This is an account of results in patent publication US4344939A, “Penicillin 1,1-dioxides, compositions thereof and methods of use” (Bayer Aktiengesellschaft, priority 1979, dated 1982).

Common to all, as to type: cell-based
Assay [1] concerns Klebsiella pneum. 1852. Nature of the assay: MIC, Table 1, Klebsiella pneum. 1852. The text has this: (§1) The penicillanic acid 1,1-dioxide derivatives according to the invention inactivate, by inhibition or destruction, the bacterial enzymes which split the β-lactam ring (β-lactamases). The degradation of other penicillins, for example of amoxicillin, mezlocillin, ampicillin, azlocillin, penicillin G, carbenicillin and ticarcillin, is thereby prevented, and on the one hand their activity is thereby retained and on the other hand their spectrum of action is extended to bacteria which produce β-lactamase.

The subject of assay [2] is Staphylococcus aureus 133. Nature of the assay: in vitro turbidity test in Muller-Hinton nutrient broth. The following applies: dosage of 1 μg/ml; 1×10^5 to 2×10^5 bacteria per ml; 0.1% glucose; incubated 24 hours. On the procedure:
[…] In each case, the nutrient solution contained 1×10^5 to 2×10^5 bacteria per ml. The small tubes containing this batch were each incubated for 24 hours and the degree of turbidity was then determined. Absence from turbidity indicates action.

For assay [3], the system named is Staphylococcus aeureus 1756. Put plainly: MIC, Table 1, Staphylococcus aureus 1756.
Text: as §1

The subject of assay [4] is E. coli T 7. Put plainly: MIC, Table 1, E. coli T 7.
Text: as §1

With `CCOC(OCC)(OCC)C(=O)N[C@@H]1C(=O)N2[C@@H](C(=O)O)C(C)(C)S(=O)(=O)[C@H]12` [Example 1], the MIC in assay [1] and in assay [3] was greater than 256 E/ml throughout. Also, the “degree of turbidity (absence from turbidity indicates action)” value in assay [2] is “free from turbidity”.
As for `CC1(C)S[C@@H]2[C@H](NC(=O)[C@H](NC(=O)N3CCN(S(C)(=O)=O)C3=O)c3ccccc3)C(=O)N2[C@H]1C(=O)O` [mezlocillin], the MIC in assay [1] is 128 E/ml; in assay [3] it was 256 E/ml; in assay [4], greater than 256 E/ml.
